Calls of active or inactive are those of the source. The rule behind the calls is not given here.
Key:
Mus musculus [1] = assay: Analgesic activity in mouse at 20 mg/kg, sc by hot-plate method; format: functional, organism-based; design: dose 20 mg/kg
Mus musculus [2] = assay: Analgesic activity in sc dosed mouse by hot-plate method; format: functional
Canis familiaris [3] = assay: Induction of overt behavior in dog at 4 mg/kg, iv; format: functional, organism-based; design: dose 4 mg/kg; conditions: Canis lupus familiaris
Canis familiaris [4] = assay: Induction of overt behavior in dog at 2 mg/kg, iv; format: functional, organism-based; design: dose 2 mg/kg; conditions: Canis lupus familiaris
Canis familiaris [5] = assay: Induction of overt behavior in dog at 0.80 mg/kg, iv; format: functional, organism-based; design: dose 0.8 mg/kg; conditions: Canis lupus familiaris
Mus musculus [6] = assay: Analgesic activity in mouse at 50 mg/kg, sc by hot-plate method; format: functional, organism-based; design: dose 50 mg/kg
Canis familiaris [7] = assay: Induction of overt behavior in dog at 3 mg/kg, iv; format: functional, organism-based; design: dose 3 mg/kg; conditions: Canis lupus familiaris
Canis familiaris [8] = assay: Induction of overt behavior in dog at 0.20 mg/kg, iv; format: functional, organism-based; design: dose 0.2 mg/kg; conditions: Canis lupus familiaris
Canis familiaris [9] = assay: Induction of overt behavior in dog at 0.40 mg/kg, iv; format: functional, organism-based; design: dose 0.4 mg/kg; conditions: Canis lupus familiaris
Canis familiaris [10] = assay: Induction of overt behavior in dog at 1 mg/kg, iv; format: functional, organism-based; design: dose 1 mg/kg; conditions: Canis lupus familiaris
Canis familiaris [11] = assay: Induction of overt behavior in dog at 0.10 mg/kg, iv; format: functional, organism-based; design: dose 0.1 mg/kg; conditions: Canis lupus familiaris
Canis familiaris [12] = assay: Induction of overt behavior in dog at 0.05 mg/kg, iv; format: functional, organism-based; design: dose 0.05 mg/kg; conditions: Canis lupus familiaris
Canis familiaris [13] = assay: Induction of overt behavior in dog at 0.01 mg/kg, iv; format: functional, organism-based; design: dose 0.01 mg/kg; conditions: Canis lupus familiaris
Canis familiaris [14] = assay: Induction of overt behavior in dog at 0.50 mg/kg, iv; format: functional, organism-based; design: dose 0.5 mg/kg; conditions: Canis lupus familiaris

CCCCCc1cc(O)c2c(c1)OC(C)(C)[C@@H]1CC/C(=N/O)C[C@@H]21
Activity (Mus musculus [1]): inactive

CN1CC[C@]23c4c5ccc(O)c4O[C@H]2[C@@H](O)C=C[C@H]3[C@H]1C5.Cl [MORPHINE HYDROCHLORIDE]
ED50 (Mus musculus [2]): 1.2 mg/kg

CCCCCc1cc(O)c2c(c1)OC(C)(C)[C@@H]1CC=C(COC)C[C@@H]21
ED50 (Mus musculus [2]): 8.2 mg/kg
Activity (Canis familiaris [3]): Active
Activity (Canis familiaris [4]): Active

CCCCCc1cc(O)c2c(c1)OC(C)(C)[C@@H]1CC=C(CNC(C)=O)C[C@@H]21
Activity (Mus musculus [1]): inactive

CCCCCc1cc(O)c2c(c1)OC(C)(C)[C@@H]1CC=C(CC)CC21 (mixture of isomers)
Activity (Canis familiaris [5]): Active
Activity (Mus musculus [6]): inactive
Activity (Canis familiaris [7]): Active
Activity (Canis familiaris [8]): inactive
Activity (Canis familiaris [9]): inactive
Activity (Canis familiaris [10]): Active
Activity (Canis familiaris [4]): Active

CCCCCc1cc(O)c2c(c1)OC(C)(C)[C@@H]1CC=C(C)C[C@@H]21 [DELTA-8-TETRAHYDROCANNABINOL]
ED50 (Mus musculus [2]): 8.8 mg/kg
Activity (Canis familiaris [8]): inactive
Activity (Canis familiaris [9]): Active
Activity (Canis familiaris [11]): inactive

COc1ccc2c3c1O[C@H]1[C@@H](O)C=C[C@H]4[C@@H](C2)N(C)CC[C@@]341.Cl
ED50 (Mus musculus [2]): 7.5 mg/kg

CCCCCc1cc(O)c2c(c1)OC(C)(C)[C@@H]1CCC(CO)=C[C@@H]21
Activity (Canis familiaris [12]): Active
Activity (Canis familiaris [13]): Active
ED50 (Mus musculus [2]): 1.9 mg/kg
Activity (Canis familiaris [11]): Active

CCCCCc1cc(O)c2c(c1)OC(C)(C)[C@@H]1CC=C(CN)C[C@@H]21
Activity (Mus musculus [1]): inactive
Activity (Canis familiaris [14]): inactive
Activity (Canis familiaris [10]): inactive
Activity (Canis familiaris [4]): Active

Source: ChEMBL document CHEMBL3227930, “Some 11-substituted tetrahydrocannabinols. Synthesis and comparison with the potent cannabinoid metabolites 11-hydroxytetrahydrocannabinols” (1979)
